# Source: patent publication US20190274975A1, “NANOPARTICLES FOR STIMULATING ELASTOGENESIS” (The Cleveland Clinic Foundation, priority 2013, published 2019)
# Columns and labels:
# [1] = equivalent to standard oral doses; mice and human patients; Ding et al. 2005; cited from earlier work
# [2] = test system: aneurysmal RASMC cultures; test: Exogenous DOX on aneurysmal RASMC cultures (previous studies by the inventors); assay type: cell-based, rat
structure (smiles),measurement,setting,value
"C[C@H]1c2cccc(O)c2C(=O)C2=C(O)[C@]3(O)C(=O)C(C(N)=O)=C(O)[C@@H](N(C)C)[C@@H]3[C@@H](O)[C@@H]21 [DOX, doxycycline]",DOX concentration measured within AAA tissues,[1],~50 ng/mL
same,exogenously delivered dose observed to inhibit proliferation and elastic matrix synthesis by EaRASMCs,[2]; observed by the inventors,5.0 µg/mL
same,exogenous DOX dosage that limited the viability of aneurysmal RASMC cultures,[2]; previous studies by the inventors,5.0 µg/mL
